The results in this text go back to the NIST ThermoML archive (doi:10.1016/j.fluid.2009.10.009).

The conditions of this data set: Crystal.

Numbers after ± are expanded uncertainties.

In the case of `CC(C)CCC[C@@H](C)[C@H]1CC[C@H]2[C@@H]3CC=C4C[C@@H](O)CC[C@]4(C)[C@H]3CC[C@]12C` [.DELTA.5-cholesten-3β-ol], where the note is “visual observation”, the Normal melting temperature was found to be 148.00 ± 0.39 °C.

As for `CCCCCCCCCCO` [decan-1-ol], the Normal melting temperature (Visual) came to 7.00 °C.
